Experiments:
Format in all cases: functional
Staphylococcus aureus [1] = assay: Antibacterial activity against Staphylococcus aureus ATCC 25923 after 18 to 24 hrs by CLSI two fold serial dilution method
Staphylococcus aureus [2] = assay: Antibacterial activity against methicillin-resistant Staphylococcus aureus N315 after 18 to 24 hrs by CLSI two fold serial dilution method
Bacillus subtilis = assay: Antibacterial activity against Bacillus subtilis ATCC 21216 after 18 to 24 hrs by CLSI two fold serial dilution method
Micrococcus luteus = assay: Antibacterial activity against Micrococcus luteus ATCC 4698 after 18 to 24 hrs by CLSI two fold serial dilution method
Enterococcus faecalis = assay: Antibacterial activity against drug-resistant Enterococcus faecalis after 18 to 24 hrs by CLSI two fold serial dilution method
Escherichia coli [3] = assay: Antibacterial activity against Escherichia coli DH52 after 18 to 24 hrs by CLSI two fold serial dilution method
Escherichia coli [4] = assay: Antibacterial activity against drug-resistant Escherichia coli after 18 to 24 hrs by CLSI two fold serial dilution method
Pseudomonas aeruginosa [5] = assay: Antibacterial activity against Pseudomonas aeruginosa ATCC 27853 after 18 to 24 hrs by CLSI two fold serial dilution method
Pseudomonas aeruginosa [6] = assay: Antibacterial activity against drug-resistant Pseudomonas aeruginosa after 18 to 24 hrs by CLSI two fold serial dilution method
Klebsiella pneumoniae = assay: Antibacterial activity against drug-resistant Klebsiella pneumoniae after 18 to 24 hrs by CLSI two fold serial dilution method
Acinetobacter baumannii = assay: Antibacterial activity against drug-resistant Acinetobacter baumannii after 18 to 24 hrs by CLSI two fold serial dilution method
Candida albicans [7] = assay: Antifungal activity against Candida albicans ATCC 76615 by CLSI two fold serial dilution method
Cyberlindnera jadinii = assay: Antifungal activity against Candida utilis ATCC 9950 by CLSI two fold serial dilution method; settings: Williopsis jadinii
Pichia norvegensis = assay: Antifungal activity against Candida mycoderma ATCC 96918 by CLSI two fold serial dilution method
Aspergillus flavus = assay: Antifungal activity against Aspergillus flavus ATCC 204304 by CLSI two fold serial dilution method
Saccharomyces cerevisiae = assay: Antifungal activity against Saccharomyces cerevisiae ATCC 9763 by CLSI two fold serial dilution method
Candida parapsilosis = assay: Antifungal activity against Candida parapsilosis ATCC 22019 by CLSI two fold serial dilution method; settings: Lodderomyces parapsilosis
Candida albicans [8] = assay: Antifungal activity against drug-resistant Candida albicans by CLSI two fold serial dilution method
Candida tropicalis = assay: Antifungal activity against drug-resistant Candida tropicalis by CLSI two fold serial dilution method
Aspergillus fumigatus = assay: Antifungal activity against drug-resistant Aspergillus fumigatus by CLSI two fold serial dilution method

Measured: MIC

COc1cc(/C=N/NC(N)=S)c2c(c1O)CN1CCc3cc4c(cc3C1C2)OCO4 (stereo unspecified)
600 µM: Escherichia coli [4] | Cyberlindnera jadinii | Aspergillus flavus
9 µM: Candida parapsilosis
150 µM: Staphylococcus aureus [1] | Staphylococcus aureus [2] | Pseudomonas aeruginosa [5] | Pseudomonas aeruginosa [6] | Klebsiella pneumoniae | Acinetobacter baumannii | Candida albicans [7] | Aspergillus fumigatus
300 µM: all other assays above

CCCCCCCCCCCCOc1c(OC)cc(/C=N/Nc2nccs2)c2c1CN1CCc3cc4c(cc3C1C2)OCO4 (stereo unspecified)
410 µM: Pseudomonas aeruginosa [5] | Candida albicans [7] | Cyberlindnera jadinii | Aspergillus flavus
30 µM: Bacillus subtilis | Candida parapsilosis
210 µM: Staphylococcus aureus [1] | Escherichia coli [3]
50 µM: Pichia norvegensis
830 µM: Micrococcus luteus | Saccharomyces cerevisiae

COc1cc(/C=N/NC(N)=S)c2c(c1OCc1ccc(Cl)cc1Cl)CN1CCc3cc4c(cc3C1C2)OCO4 (stereo unspecified)
10 µM: Candida parapsilosis
3 µM: Acinetobacter baumannii
440 µM: Enterococcus faecalis | Escherichia coli [3] | Escherichia coli [4] | Cyberlindnera jadinii | Aspergillus flavus
220 µM: Bacillus subtilis | Pseudomonas aeruginosa [5] | Pseudomonas aeruginosa [6] | Klebsiella pneumoniae | Pichia norvegensis | Candida tropicalis
880 µM: Saccharomyces cerevisiae
110 µM: all other assays above

COc1cc(/C=N/NC(N)=S)c2c(c1OCCO)CN1CCc3cc4c(cc3C1C2)OCO4 (stereo unspecified)
140 µM: Pseudomonas aeruginosa [5] | Pseudomonas aeruginosa [6] | Pichia norvegensis
30 µM: Enterococcus faecalis
540 µM: Acinetobacter baumannii | Saccharomyces cerevisiae
20 µM: Candida parapsilosis
270 µM: all other assays above

COc1cc(/C=N/NC(N)=S)c2c(c1OCc1ccc(Cl)c(Cl)c1)CN1CCc3cc4c(cc3C1C2)OCO4 (stereo unspecified)
30 µM: Acinetobacter baumannii
3 µM: Aspergillus fumigatus
440 µM: Micrococcus luteus | Enterococcus faecalis | Candida albicans [7] | Pichia norvegensis | Aspergillus flavus | Candida albicans [8]
110 µM: Escherichia coli [3] | Escherichia coli [4] | Candida tropicalis
220 µM: all other assays above

CCCCCCCCOc1c(OC)cc(/C=N/NC(N)=S)c2c1CN1CCc3cc4c(cc3C1C2)OCO4 (stereo unspecified)
480 µM: Saccharomyces cerevisiae
120 µM: Staphylococcus aureus [2] | Enterococcus faecalis | Pseudomonas aeruginosa [5] | Pseudomonas aeruginosa [6] | Candida parapsilosis | Candida tropicalis
60 µM: Staphylococcus aureus [1] | Aspergillus fumigatus
240 µM: all other assays above

OC(Cn1cncn1)(Cn1cncn1)c1ccc(F)cc1F [FLUCONAZOLE]
50 µM: Saccharomyces cerevisiae
3 µM: Candida albicans [7]
10 µM: Pichia norvegensis | Candida albicans [8]
840 µM: Aspergillus flavus | Aspergillus fumigatus
30 µM: Cyberlindnera jadinii | Candida tropicalis
7 µM: Candida parapsilosis

CCOc1c(OC)cc(/C=N/NC(N)=S)c2c1CN1CCc3cc4c(cc3C1C2)OCO4 (stereo unspecified)
560 µM: Aspergillus flavus
70 µM: Staphylococcus aureus [1] | Pseudomonas aeruginosa [5] | Pseudomonas aeruginosa [6] | Candida parapsilosis
140 µM: Staphylococcus aureus [2] | Micrococcus luteus | Enterococcus faecalis | Acinetobacter baumannii | Candida albicans [7] | Candida albicans [8] | Aspergillus fumigatus
280 µM: all other assays above

CCn1cc(C(=O)O)c(=O)c2cc(F)c(N3CCNCC3)cc21 [NORFLOXACIN]
6 µM: Micrococcus luteus
50 µM: Escherichia coli [3] | Pseudomonas aeruginosa [5]
2 µM: Staphylococcus aureus [1]
800 µM: Enterococcus faecalis | Klebsiella pneumoniae | Acinetobacter baumannii
30 µM: Staphylococcus aureus [2]
3 µM: Bacillus subtilis
1600 µM: Escherichia coli [4] | Pseudomonas aeruginosa [6]

Reference: ChEMBL document CHEMBL4145497, “Discovery of 2-aminothiazolyl berberine derivatives as effectively antibacterial agents toward clinically drug-resistant Gram-negative Acinetobacter baumanii” (Eur J Med Chem, 2018)
